The target of the assay is T1, ERα (Homo sapiens, UniProt P03372).
T1 construct: host or cells: MCF7
T1 sequence (P03372 1-595): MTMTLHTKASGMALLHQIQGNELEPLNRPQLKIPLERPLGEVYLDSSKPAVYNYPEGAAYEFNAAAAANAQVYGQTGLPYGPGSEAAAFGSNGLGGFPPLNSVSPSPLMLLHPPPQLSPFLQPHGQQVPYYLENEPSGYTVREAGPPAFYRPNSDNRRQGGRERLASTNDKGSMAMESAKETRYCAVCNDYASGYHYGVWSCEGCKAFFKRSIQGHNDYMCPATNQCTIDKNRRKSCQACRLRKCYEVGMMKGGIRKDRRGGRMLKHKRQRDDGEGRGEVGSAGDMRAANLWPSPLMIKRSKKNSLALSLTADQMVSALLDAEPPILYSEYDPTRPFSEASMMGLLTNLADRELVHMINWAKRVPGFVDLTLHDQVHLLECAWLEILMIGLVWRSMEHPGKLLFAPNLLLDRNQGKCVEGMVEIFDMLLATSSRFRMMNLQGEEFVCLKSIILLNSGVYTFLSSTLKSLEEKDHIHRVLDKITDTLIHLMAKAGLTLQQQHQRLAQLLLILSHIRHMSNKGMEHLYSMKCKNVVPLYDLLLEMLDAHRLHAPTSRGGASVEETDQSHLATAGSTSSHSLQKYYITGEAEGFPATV
Nature of the assay: Estrogen receptor degradation activity: breast cancer cell ERα in cell western assay (MCF7 cells). It counts as cell-based. In short, it runs like this: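 Compounds were applied to MCF7 cells in stripped-serum, phenol red-free medium for 4 h at final 0.3–0.0000018 μM, with fulvestrant (0.1 μM) as control. Value: IC50 (nM) for 50% ERα degradation.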

In the case of `Cl.O=C(O)c1ccc2c(c1)CCCC(C1=CCC(F)(F)CC1)=C2c1ccc(CC2CN(CCCF)C2)cc1` [Example 5, 8-(4,4-difluorocyclohex-1-en-1-yl)-9-(4-((1-(3-fluoropropyl)azetidin-3-yl)methyl)phenyl)-6,7-dihydro-5H-benzo[7]annulene-3-carboxylic acid], the “% Degradation At 0.3 μM” value (0.3 μM, 4 hours, relative to fulvestrant 0.1 μM positive control) worked out at 86%. Besides, the DC50 (4 hours post compound addition, concentration which degrades 50% of the estrogen receptor, read-out: Degradation IC50) was determined as 500 pM.

Values taken from patent US12595230B2, “Substituted 6,7-dihydro-5H-benzo[7]annulene compounds and their derivatives, processes for their preparation and therapeutic uses thereof” (Sanofi, priority 2020, dated 2026).
